Experimental data as given in patent US9770026B2, “Substituted pyrimidine compound and uses thereof” (Shenyang Sinochem Agrochemicals R&D Co., Ltd., priority 2012, dated 2017).

Experiments:
armyworm = assay: bioactivity test against armyworm, airbrush spray; type: in vivo; conditions: 600 mg/L; for pest or weed control at 600 µg/mL: 72 h, read-out: Insecticidal activity against armyworm (%)
Diamond back moth = assay: insecticidal activity against diamond back moth, airbrush spray; type: in vivo; conditions: for Insecticidal activity against diamond back moth (%) / pest or weed control at 600 µg/mL: 600 mg/L
In short: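 Airbrush leaf-disc spray test: both faces of 2 cm cabbage discs received 0.5 ml of test solution at 0.7 kg/cm^2. Solutions were made in acetone:methanol (1:1) and brought to concentration with 0.1% Tween 80 in water. Ten second-instar larvae per disc, triplicates, were held at 25° C and 60˜70% R.H., with mortality recorded at 72 hrs.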

wheat powdery mildew = assay: protectant activity in vivo against wheat powdery mildew; conditions: protectant activity; for control effect against wheat powdery mildew (%): 400 mg/L; for pest or weed control at 400 µg/mL: read-out: control effect against wheat powdery mildew (%), 400 mg/L
corn rust = assay: protectant activity in vivo against corn rust; conditions: protectant activity; for control effect against corn rust (%): 400 mg/L; for pest or weed control at 6.25 µg/mL / pest or weed control at 25 µg/mL / pest or weed control at 100 µg/mL / pest or weed control at 400 µg/mL: Zea mays, 168 h; for pest or weed control at 6.25 µg/mL: read-out: control effect against corn rust (%), 6.25 mg/L; for pest or weed control at 25 µg/mL: read-out: control effect against corn rust (%), 25 mg/L; for pest or weed control at 100 µg/mL: read-out: control effect against corn rust (%), 100 mg/L; for pest or weed control at 400 µg/mL: read-out: control effect against corn rust (%), 400 mg/L
cucumber downy mildew = assay: protectant activity in vivo against cucumber downy mildew; conditions: protectant activity; for pest or weed control at 25 µg/mL / pest or weed control at 50 µg/mL / pest or weed control at 100 µg/mL / pest or weed control at 400 µg/mL: Cucumis sativus, 168 h; for pest or weed control at 25 µg/mL: read-out: control effect against cucumber downy mildew (%), 25 mg/L; for pest or weed control at 50 µg/mL: read-out: control effect against cucumber downy mildew (%), 50 mg/L; for pest or weed control at 100 µg/mL: read-out: control effect against cucumber downy mildew (%), 100 mg/L; for pest or weed control at 400 µg/mL: read-out: control effect against cucumber downy mildew (%), 400 mg/L
[1] = tested on: Green peach aphids (Myzus Persicae Sulzer); assay: bioactivity test against green peach aphid, airbrush foliar spray; type: in vivo; conditions: 600 mg/L, contrastive test; for pest or weed control at 600 µg/mL: Myzus persicae, foliar, 48 h, read-out: Insecticidal activity against peach aphid (%)
In short: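 Aphids (15-30 per cabbage leaf disc) on moist filter paper were airbrush-sprayed at 10 psi, 0.5 mL, with compound from acetone:methanol (1:1) diluted in water with 0.1% tween 80. Held at 25±1 C, 60±5% RH; survivors counted after 48 hrs to give death rates.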

carmine spider mite = assay: bioactivity test against carmine spider mite, airbrush spray; type: in vivo; conditions: contrastive test; for Insecticidal activity against carmine spider mite (% ) / pest or weed control at 600 µg/mL: 600 mg/L
In short: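 Broadbean seedlings infested with adult mites were sprayed with compound (acetone/methanol stock diluted in 0.1% Tween 80 water) by airbrush at 0.7 kg/cm^2, 0.5 ml. Three replicates were run. Mortality was scored after 72 hrs.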

[2] = Tetranychus cinnabarinus, 72 h, read-out: Insecticidal activity against carmine spider mite (% )

SMILES | Insecticidal activity against armyworm (%) (armyworm) | Insecticidal activity against diamond back moth (%) (Diamond back moth) | control effect against wheat powdery mildew (%) (wheat powdery mildew) | control effect against corn rust (%) (corn rust) | control effect against cucumber downy mildew (%) (cucumber downy mildew; 400 mg/L) | Insecticidal activity against peach aphid (%) [1] [%] | Insecticidal activity against carmine spider mite (% ) (carmine spider mite) [%] | pest or weed control at 600 µg/mL (armyworm) [%] | pest or weed control at 600 µg/mL (Diamond back moth; 72 h) [%] | pest or weed control at 6.25 µg/mL (corn rust) [%] | pest or weed control at 25 µg/mL (corn rust) [%] | pest or weed control at 100 µg/mL (corn rust) [%] | pest or weed control at 400 µg/mL (corn rust) [%] | pest or weed control at 25 µg/mL (cucumber downy mildew) [%] | pest or weed control at 50 µg/mL (cucumber downy mildew) [%] | pest or weed control at 100 µg/mL (cucumber downy mildew) [%] | pest or weed control at 600 µg/mL [1] [%] | pest or weed control at 400 µg/mL (wheat powdery mildew; Triticum aestivum, 168 h) [%] | pest or weed control at 400 µg/mL (cucumber downy mildew) [%] | pest or weed control at 600 µg/mL (carmine spider mite; [2]) [%] | also measured
CCc1ncnc(NC(C)c2ccc(Oc3ccccc3)nc2)c1Cl (stereo not drawn) [CK8, reference compound] | 17 | 33 | 0 | 50 | 98 | 0 | 54 |  |  |  |  |  |  |  |  |  |  |  |  |  | control effect against cucumber downy mildew (%) (cucumber downy mildew; 25 mg/L): 75%; control effect against cucumber downy mildew (%) (cucumber downy mildew; 50 mg/L): 80%; control effect against cucumber downy mildew (%) (cucumber downy mildew; 100 mg/L): 95%
CCc1ncnc(NC(=O)Cc2ccc(Oc3ncc(C(F)(F)F)cc3Cl)cc2)c1Cl [CK16, reference compound] | 0 | 0 | 70 | 0 | 85 | 64 | 0 |  |  |  |  |  |  |  |  |  |  |  |  |  | 
Cc1ncnc(NCc2ccc(Oc3ncc(C(F)(F)F)cc3Cl)cc2)c1Cl [CK23, reference compound] |  |  | 100 |  | 100 |  | 64 | 0 | 0 | 0 | 0 | 0 | 100 | 0 | 0 | 0 | 0 |  |  |  | pest or weed control at 6.25 µg/mL (wheat powdery mildew; Triticum aestivum, 168 h, read-out: control effect against wheat powdery mildew (%), 6.25 mg/L): 0%; pest or weed control at 25 µg/mL (wheat powdery mildew; Triticum aestivum, 168 h, read-out: control effect against wheat powdery mildew (%), 25 mg/L): 0%; pest or weed control at 100 µg/mL (wheat powdery mildew; Triticum aestivum, 168 h, read-out: control effect against wheat powdery mildew (%), 100 mg/L): 0%
Cc1ncnc(NC(C)c2ccc(Oc3ncc(C(F)(F)F)cc3Cl)cc2)c1Cl (stereo not drawn) [CK27, reference compound] |  |  |  |  |  |  |  | 29 | 0 | 30 | 90 | 100 | 100 | 0 | 0 | 0 | 0 | 80 | 100 | 100 | pest or weed control at 10 µg/mL (carmine spider mite; Tetranychus cinnabarinus, 72 h, 10 mg/L, read-out: Insecticidal activity against carmine spider mite (% )): 18%; pest or weed control at 100 µg/mL (carmine spider mite; Tetranychus cinnabarinus, 72 h, 100 mg/L, read-out: Insecticidal activity against carmine spider mite (% )): 100%
Cc1ncnc(NCc2ccc(Oc3c(Cl)cc([N+](=O)[O-])cc3Cl)cc2)c1Cl [CK65, reference compound] |  |  |  |  |  |  |  | 0 | 86 |  |  |  | 0 |  |  |  | 0 | 0 | 0 | 0 | pest or weed control at 10 µg/mL (Diamond back moth; 72 h, 10 mg/L): 5%; pest or weed control at 100 µg/mL (Diamond back moth; 72 h, 100 mg/L): 35%
